Consider two substances from patent publication US6767895B2 (priority 2000, dated 2004).

The conditions of data set [1]: in vivo.
Another data set concerns goldfish. The settings on record: in vivo.
The subject of a further data set is mice. The settings on record: mouse, in vivo.

Regarding “Gly-Xaa3-Ser-Phe-Cys-Lys-Ala-Asn-Gly-Lys-Xaa3-Cys-Ser-Xaa5-His-Ala-Asp-Cys-Cys-Asn-Cys-Cys-Leu-Ser-Gly-Ile-Cys-Lys-Xaa3-Ser-Thr-Asn-Val-Ile-Leu-Xaa3-Gly-Cys-Ser-Thr-Ser-Ser-Phe-Phe-Arg-Ile [R11.14]”, the “activity in formalin test (licking time)” value in data set [1] was “active”.

With “Xaa2-Cys-Lys-Thr-Asn-Lys-Met-Ser-Cys-Ser-Leu-His-Xaa1-Xaa1-Cys-Cys-Arg-Phe-Arg-Cys-Cys-Phe-His-Gly-Lys-Cys-Gln-Thr-Ser-Val-Phe-Gly-Cys-Xaa4-Val-Asp-Xaa3 [R11.19]”, in the data set on goldfish, the “effects observed shortly after injection in goldfish” value was “gasping (gills opening widely), followed by swimming backward or in circular and/or vertical motion, imbalanced swimming (body tilting), lying almost flat near the bottom and death”. For the same substance, the “effects observed shortly after injection in mice” value with mice is “running and jumping in short duration immediately followed by convulsion with back legs kicking, copius urination, coma and death”.
